Measured values from patent publication US20110269797A1, “ANLN PROTEIN AS AN ENDOCRINE TREATMENT PREDICTIVE FACTOR” (ATLAS ANTIBODIES AB, priority 2008, published 2011).
“Also recorded” adds a separate entry of the source.

Assays:
ERα+/PR− tumors = conditions: follow-up period of 6 years, Dowsett 2005; cited from earlier work
[1] = system: stage II primary breast carcinoma; test: Randomized premenopausal tamoxifen trial, Cohort II TMA, Kaplan-Meier survival analysis by ANLN protein level; assay type: in vivo, human
Text: Median age at diagnosis was 45 (25-57) years. Median follow-up was 13.9 years and less than 2% of the patients had received adjuvant chemotherapy. The study design is described in detail elsewhere (Rydén L et al, Eur J Cancer, 2005, 41(2): 256-64). Ethical permission was obtained from the Local Ethics Committees at Lund and Linkoping Universities.
All cases had been histopathologically re-evaluated on hematoxylin and eosin stained slides. TMA:s were constructed by sampling 2×0.6 mm cores per case from areas representative of invasive cancer, using an automated arraying device (ATA-27, Beecher Inc, Sun Prairie, Wis., USA). The TMA:s were prepared and automated IHC was performed as described in section 3 above, using the ANLN protein antibody prepared as described in section 2 above. IHC staining of ER had been performed previously. In line with current clinical praxis, a cut-off at 10% positive nuclei was used to define hormone receptor positivity.
For statistical analyses, categories were based on nuclear fraction (nf). nf was evaluated as in Examples, section 4, above. As with “the fraction of stained cells” in Examples, Section 3 above, nf was classified as ≦1%, 2-25%, 26-75% or >75%. For this purpose the 2-25% group were split into two groups namely 2-10% and >10-25%. Based on the survival trends for all different strata, dichotomized variables were constructed for further statistical analyses. […] Subsequently, groups denoted “high” or “low” were established based on ANLN protein expression. In a first analysis, the “high” group represented a nuclear fraction (nf) of >1%, and the “low” group a nuclear fraction≦1%. In a second analysis, the “high” group represented a nuclear fraction (nf) of >10%, and the “low” group a nuclear fraction≦10%.
In a third analysis, the “high” group represented a nuclear fraction (nf) of 26%, and the “low” group a nuclear fraction≦25%. This classification of samples was used for OS, RFS and BOSS analysis according to the Kaplan-Meier estimator, and the log-rank test was used to compare survival in different strata. All statistical tests were two-sided, and p-values of <[…] were considered significant. All calculations were made with the statistical package SPSS 16.0 (SPSS Inc. Ill., USA).

breast cancer = conditions: cited from earlier work
primary breast cancer = test: Consecutive cohort TMA (Cohort I), survival analysis of tamoxifen-treated ER+ subjects by ANLN protein level; assay type: in vivo, human; conditions: ER+ subjects given adjuvant tamoxifen; cut off nf 1%; FIG. 6, p=0.018
Text: Archival formalin-fixed paraffin-embedded tissue from 498 patients diagnosed with primary breast cancer between 1988 and 1992 was collected from the Department of Pathology, Malmo University Hospital, Sweden. The median age of patients was 65 (range 27-96) years and median follow-up time was 128 months (0-207). Information regarding the date of death was obtained from the regional cause-of-death registries for all patients. Ethical permission was obtained from the Local Ethics Committee of Lund University.
All 498 cases of breast cancer were histopathologically reevaluated on slides stained with hematoxylin and eosin. TMA:s were constructed by sampling 2×1.0 mm cores per case from areas representative of invasive cancer, using a manual arraying device (ATA-27, Beecher Inc, Sun Prairie, Wis., USA). The TMA:s were prepared and automated IHC was performed as described in section 3 above, using the ANLN protein antibody prepared as described in section 2 above. IHC staining of ER had been performed previously. […]
For statistical analyses, the nucleic fraction (nf) level was evaluated, in line with what is described in Examples, Section 3 above. The nuclear fraction was subjectively evaluated in accordance to standards used in clinical histo-pathological diagnostics and outcome was classified as ≦1%, 2-25%, 26-75% or >75%. […]

SMILES | recurrence rate compared to patients treated with tamoxifen (ERα+/PR− tumors) | benefit from tamoxifen treatment (RFS, BCSS, OS) ([1]; ER positive ANLN protein low patients (nf≦10%), TAM vs ctrl, FIGS. 14a, 15a, 16a) | impact of tamoxifen treatment on survival (RFS, BCSS, OS) ([1]; ER positive patients with high ANLN protein level (nf>10%), TAM vs ctrl, FIGS. 14b, 15b, 16b) | RFS of ANLN protein low versus ANLN protein high patients treated with tamoxifen ([1]; adjuvant tamoxifen 2 years, cut off 1% and 10%, FIG. 8) | effect of tamoxifen treatment on RFS ([1]; ductal carcinoma subgroup, ANLN protein low (nf≦10%), TAM vs ctrl, FIG. 20a) | impact of tamoxifen treatment on RFS outcome ([1]; ductal carcinoma subgroup, high ANLN protein level (nf>10%), TAM vs ctrl, FIG. 20b) | impact of tamoxifen treatment on RFS outcome ([1]; subjects with high ANLN protein level (nf>10%), TAM 2 years vs ctrl, FIG. 11) | ERα positive patients that do not respond to tamoxifen treatment (breast cancer; Riggins 2007, Gruvberger-Saal 2007) | breast cancer mortality (breast cancer; five years adjuvant treatment after primary surgery, ER positive tumors, irrespective of lymph node status, EBCTCG 1998) | probability of recurrence free survival, ANLN protein low versus high subjects treated with tamoxifen (primary breast cancer)
CC(C)(C#N)c1cc(Cn2cncn2)cc(C(C)(C)C#N)c1 [anastrozole] | halved | – | – | – | – | – | – | – | – | –
CC/C(=C(\c1ccccc1)c1ccc(OCCN(C)C)cc1)c1ccccc1 [tamoxifen] | – | particularly beneficial; also recorded: at least slightly, benefit | limited or no impact | significantly better | effective | no positive impact on the outcome | no positive impact on the outcome | 30-40% | reduces | significantly better
